Reference: patent US9309242B2, “Substituted pyrido[2,3-b]pyrazines as FGFR kinase inhibitors” (priority 2011, dated 2016)
Read-outs that look alike come from different tables or passages of the source.

Assays:
[1] = system: Ba/F3-FGFR1-transfected cells; assay: Ba/F3-FGFR1 (plus IL3) cellular proliferation assay, counterscreen with 10 ng/ml murine IL3; assay type: cell-based; conditions: read-out: BAF3-FGFR1 (PLUS IL3) pIC50 (converted)
Outline: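 Proliferation read-out: resazurin-based Alamar Blue fluorescence (540/590 nm) after 4 h, following 24 h compound treatment of 20000 Ba/F3-FGFR1 cells per well in 10% FBS RPMI at 37° C. IL3 counterscreen used the same protocol plus 10 ng/ml murine IL3.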

[2] = target: FGFR1 (h) (Homo sapiens, UniProt P11362); assay: FGFR1 (enzymatic assay), TR-FRET; assay type: biochemical; conditions: average values if tested multiple times, read-out: FGFR 1 pIC50 (converted)
FGFR1 (h), sequence (P11362 22-822): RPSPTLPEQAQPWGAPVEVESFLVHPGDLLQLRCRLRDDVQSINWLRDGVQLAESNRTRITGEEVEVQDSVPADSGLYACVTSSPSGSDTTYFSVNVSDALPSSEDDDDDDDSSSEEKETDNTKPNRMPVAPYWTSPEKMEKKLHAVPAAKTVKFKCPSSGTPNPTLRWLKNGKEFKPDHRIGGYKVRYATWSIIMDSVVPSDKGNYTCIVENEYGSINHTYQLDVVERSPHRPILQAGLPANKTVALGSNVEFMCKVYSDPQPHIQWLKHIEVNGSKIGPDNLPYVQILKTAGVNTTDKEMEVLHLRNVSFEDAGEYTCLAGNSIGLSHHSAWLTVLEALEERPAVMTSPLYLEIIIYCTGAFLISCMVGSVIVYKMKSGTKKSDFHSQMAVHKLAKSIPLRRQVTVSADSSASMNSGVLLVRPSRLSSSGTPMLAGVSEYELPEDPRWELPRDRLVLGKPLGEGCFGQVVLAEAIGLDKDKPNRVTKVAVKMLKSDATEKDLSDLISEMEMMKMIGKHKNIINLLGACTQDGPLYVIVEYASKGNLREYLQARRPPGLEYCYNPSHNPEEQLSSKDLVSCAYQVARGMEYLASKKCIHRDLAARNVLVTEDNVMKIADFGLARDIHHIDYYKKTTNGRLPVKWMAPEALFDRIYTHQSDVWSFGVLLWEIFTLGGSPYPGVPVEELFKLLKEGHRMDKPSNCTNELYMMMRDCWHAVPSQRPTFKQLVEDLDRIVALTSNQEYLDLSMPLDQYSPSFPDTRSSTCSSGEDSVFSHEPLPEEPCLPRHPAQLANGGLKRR

[3] = target: T1, Ba/F3-KDR-transfected cells (Homo sapiens, UniProt P35968); assay: Ba/F3-KDR (minus IL3) cellular proliferation assay, Alamar Blue; assay type: cell-based
T1 construct: BAF3-KDR (MIN IL3) pIC50; other: minus IL3
T1 sequence (P35968 whole entry, change not shown): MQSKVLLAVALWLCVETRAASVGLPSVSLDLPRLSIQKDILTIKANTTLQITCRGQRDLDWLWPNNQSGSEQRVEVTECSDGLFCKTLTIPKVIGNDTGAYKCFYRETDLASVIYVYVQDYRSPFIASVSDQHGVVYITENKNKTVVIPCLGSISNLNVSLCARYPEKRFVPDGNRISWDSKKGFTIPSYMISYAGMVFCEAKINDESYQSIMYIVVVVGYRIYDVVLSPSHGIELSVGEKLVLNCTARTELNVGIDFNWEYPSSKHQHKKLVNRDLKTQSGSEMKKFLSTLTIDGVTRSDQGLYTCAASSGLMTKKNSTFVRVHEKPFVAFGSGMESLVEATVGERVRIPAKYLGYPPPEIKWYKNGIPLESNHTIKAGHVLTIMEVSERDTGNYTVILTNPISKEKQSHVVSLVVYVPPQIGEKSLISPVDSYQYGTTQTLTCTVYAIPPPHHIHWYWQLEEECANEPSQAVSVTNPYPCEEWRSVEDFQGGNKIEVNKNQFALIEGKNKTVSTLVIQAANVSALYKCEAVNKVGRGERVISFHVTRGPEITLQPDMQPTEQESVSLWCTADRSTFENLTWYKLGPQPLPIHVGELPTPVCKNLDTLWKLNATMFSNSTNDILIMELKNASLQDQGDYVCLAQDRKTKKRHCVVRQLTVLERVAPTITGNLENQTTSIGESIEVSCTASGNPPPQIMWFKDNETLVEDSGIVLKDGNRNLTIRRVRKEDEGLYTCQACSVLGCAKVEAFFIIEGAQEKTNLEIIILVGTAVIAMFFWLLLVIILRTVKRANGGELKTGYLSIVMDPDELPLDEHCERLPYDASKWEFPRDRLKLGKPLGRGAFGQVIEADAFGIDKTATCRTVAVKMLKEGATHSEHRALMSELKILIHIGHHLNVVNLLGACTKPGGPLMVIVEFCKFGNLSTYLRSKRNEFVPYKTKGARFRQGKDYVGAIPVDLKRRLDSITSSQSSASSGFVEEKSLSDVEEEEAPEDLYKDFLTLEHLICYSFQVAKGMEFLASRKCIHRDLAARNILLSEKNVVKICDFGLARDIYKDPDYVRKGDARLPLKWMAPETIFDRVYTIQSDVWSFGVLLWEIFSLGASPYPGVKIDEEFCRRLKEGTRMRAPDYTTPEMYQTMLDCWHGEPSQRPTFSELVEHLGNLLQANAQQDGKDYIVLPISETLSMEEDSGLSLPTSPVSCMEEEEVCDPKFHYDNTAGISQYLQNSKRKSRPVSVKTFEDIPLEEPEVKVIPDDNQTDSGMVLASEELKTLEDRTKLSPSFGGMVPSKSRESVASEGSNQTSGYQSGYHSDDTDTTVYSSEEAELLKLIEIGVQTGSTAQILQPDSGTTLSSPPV
Outline: (§1)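 Read-out: resazurin-based Alamar Blue fluorescence (ex. 540, em. 590 nm) after 4 h. Before that, cells were incubated with compound for 24 h at 37° C. The counterscreen ran identically but with IL3 supplemented.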

[4] = target: FGFR4 (h) (Homo sapiens, UniProt P22455); assay: FGFR4 (enzymatic assay), TR-FRET; assay type: biochemical; conditions: FGFR 4 pIC50, enzymatic assay; average values if tested multiple times
FGFR4 (h), sequence (P22455 22-802): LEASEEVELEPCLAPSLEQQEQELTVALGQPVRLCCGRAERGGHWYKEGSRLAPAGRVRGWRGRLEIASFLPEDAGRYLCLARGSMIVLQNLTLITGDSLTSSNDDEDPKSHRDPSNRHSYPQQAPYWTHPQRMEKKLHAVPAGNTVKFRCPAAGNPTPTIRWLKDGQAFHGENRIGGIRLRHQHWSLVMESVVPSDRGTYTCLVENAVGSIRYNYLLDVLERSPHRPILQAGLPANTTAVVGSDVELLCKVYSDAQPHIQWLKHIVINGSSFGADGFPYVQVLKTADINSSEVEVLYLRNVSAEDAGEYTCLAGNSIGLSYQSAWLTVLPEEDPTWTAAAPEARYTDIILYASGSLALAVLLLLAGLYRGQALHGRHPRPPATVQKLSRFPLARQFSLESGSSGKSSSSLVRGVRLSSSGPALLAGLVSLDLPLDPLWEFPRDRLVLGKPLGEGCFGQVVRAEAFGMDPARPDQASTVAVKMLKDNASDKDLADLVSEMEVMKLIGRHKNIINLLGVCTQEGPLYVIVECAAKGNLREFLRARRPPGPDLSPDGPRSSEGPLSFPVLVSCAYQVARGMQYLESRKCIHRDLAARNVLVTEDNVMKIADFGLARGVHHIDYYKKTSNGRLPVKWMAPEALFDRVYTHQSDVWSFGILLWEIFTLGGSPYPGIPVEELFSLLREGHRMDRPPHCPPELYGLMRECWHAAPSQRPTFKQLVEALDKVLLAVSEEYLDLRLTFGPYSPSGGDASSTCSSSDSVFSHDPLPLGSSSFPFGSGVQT

[5] = target: FGFR2 (h) (Homo sapiens, UniProt P21802); assay: FGFR2 (enzymatic assay), TR-FRET; assay type: biochemical; conditions: enzymatic assay; average values if tested multiple times; read-out: FGFR 2 pIC50 (converted)
Outline: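 Phosphorylation of 500 nM Btn-Flt3 by human FGFR2 (150 ng/ml) is measured at 0.4 μM ATP. The buffer is 50 mM HEPES pH 7.5 containing 6 mM MnCl2, 1 mM DTT, 0.1 mM Na3VO4 and 0.01% Triton-X-100, and compound is tested at 1% DMSO final.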

[6] = system: Ba/F3-KDR-transfected cells; assay: Ba/F3-KDR (plus IL3) cellular proliferation assay, counterscreen with 10 ng/ml murine IL3; assay type: cell-based; conditions: read-out: BAF3-KDR (PLUS IL3) pIC50 (converted)
Outline: as §1

[7] = target: T2, Ba/F3-FGFR1-transfected cells (Homo sapiens, UniProt P11362); assay: Ba/F3-FGFR1 (minus IL3) cellular proliferation assay, Alamar Blue; assay type: cell-based
T2 construct: BAF3-FGFR1 (MIN IL3) pIC50; other: minus IL3
T2 sequence (P11362 whole entry, change not shown): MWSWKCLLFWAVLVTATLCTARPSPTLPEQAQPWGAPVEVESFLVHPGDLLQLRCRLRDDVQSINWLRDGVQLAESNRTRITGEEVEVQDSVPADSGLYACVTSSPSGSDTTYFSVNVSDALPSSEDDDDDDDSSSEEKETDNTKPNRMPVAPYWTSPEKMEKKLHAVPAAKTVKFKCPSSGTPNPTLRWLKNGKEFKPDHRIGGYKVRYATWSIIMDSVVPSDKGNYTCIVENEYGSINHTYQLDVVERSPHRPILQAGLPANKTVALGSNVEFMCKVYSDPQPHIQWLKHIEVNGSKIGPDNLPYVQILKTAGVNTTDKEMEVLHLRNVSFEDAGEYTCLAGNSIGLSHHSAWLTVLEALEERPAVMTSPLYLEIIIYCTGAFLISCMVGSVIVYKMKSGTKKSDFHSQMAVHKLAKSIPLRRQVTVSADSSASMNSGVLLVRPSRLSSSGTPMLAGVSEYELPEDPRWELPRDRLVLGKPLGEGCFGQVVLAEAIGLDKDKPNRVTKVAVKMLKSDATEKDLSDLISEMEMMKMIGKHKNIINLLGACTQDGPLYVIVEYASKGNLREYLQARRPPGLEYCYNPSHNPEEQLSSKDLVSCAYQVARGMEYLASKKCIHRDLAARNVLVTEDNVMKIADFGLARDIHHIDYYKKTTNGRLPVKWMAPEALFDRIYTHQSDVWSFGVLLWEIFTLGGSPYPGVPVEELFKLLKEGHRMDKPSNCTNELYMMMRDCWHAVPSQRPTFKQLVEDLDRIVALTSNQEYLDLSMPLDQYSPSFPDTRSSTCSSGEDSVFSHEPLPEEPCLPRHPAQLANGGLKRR
Outline: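 Read-out: resazurin reduction, fluorescence ex 540 nm/em 590 nm after 4 h Alamar Blue at 37 °C. Before that, FGFR1-transfected Ba/F3 cells (20000/well) sat with compound for 24 h in RPMI-1640/10% FBS/2 mM L-Gln.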

[8] = system: Ba/F3-FGFR3-transfected cells; assay: Ba/F3-FGFR3 (plus IL3) cellular proliferation assay, counterscreen with 10 ng/ml murine IL3; assay type: cell-based; conditions: read-out: BAF3-FGFR3 (PLUS IL3) pIC50 (converted)
Outline: (§2)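 Read-out: resazurin-based Alamar Blue fluorescence (ex 540 nm, em 590 nm) after a 4 h dye incubation. FGFR3-transfected Ba/F3 cells, 20000 per well, are exposed to compound for 24 h at 37° C in RPMI-1640/10% FBS. Plus-IL3 counterscreen adds 10 ng/ml murine IL3.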

[9] = target: T3, Ba/F3-FGFR3-transfected cells (Homo sapiens, UniProt P22607); assay: Ba/F3-FGFR3 (minus IL3) cellular proliferation assay, Alamar Blue; assay type: cell-based
T3 construct: BAF3-FGFR3 (MIN IL3) pIC50; other: minus IL3
T3 sequence (P22607 whole entry, change not shown): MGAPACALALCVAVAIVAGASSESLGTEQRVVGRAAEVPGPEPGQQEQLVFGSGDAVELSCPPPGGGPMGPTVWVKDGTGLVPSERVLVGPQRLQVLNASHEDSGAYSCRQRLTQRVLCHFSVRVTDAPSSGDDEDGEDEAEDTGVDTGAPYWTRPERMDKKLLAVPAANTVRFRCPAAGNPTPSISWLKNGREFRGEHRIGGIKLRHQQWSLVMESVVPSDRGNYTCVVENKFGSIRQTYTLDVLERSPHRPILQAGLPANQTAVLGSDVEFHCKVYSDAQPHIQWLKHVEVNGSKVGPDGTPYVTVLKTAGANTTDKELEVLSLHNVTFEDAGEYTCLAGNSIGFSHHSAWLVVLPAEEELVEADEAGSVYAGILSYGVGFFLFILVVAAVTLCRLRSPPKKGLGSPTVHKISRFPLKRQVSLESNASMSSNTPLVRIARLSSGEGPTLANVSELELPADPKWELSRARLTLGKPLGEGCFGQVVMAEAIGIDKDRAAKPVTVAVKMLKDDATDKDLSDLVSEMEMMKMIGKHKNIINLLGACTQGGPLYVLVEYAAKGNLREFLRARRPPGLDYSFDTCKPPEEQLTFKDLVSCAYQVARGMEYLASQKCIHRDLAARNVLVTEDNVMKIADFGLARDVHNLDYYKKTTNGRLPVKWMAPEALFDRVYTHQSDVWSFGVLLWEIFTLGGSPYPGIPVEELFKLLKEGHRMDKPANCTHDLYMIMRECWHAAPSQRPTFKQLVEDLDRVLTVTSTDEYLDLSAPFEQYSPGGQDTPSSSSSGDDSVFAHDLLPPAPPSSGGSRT
Outline: as §2

[10] = plus IL3 (10 ng/ml murine IL3, counterscreen)

SMILES	IC50 [1, 10]	IC50 [2]	BAF3-KDR (MIN IL3) pIC50 [3]	IC50 [4]	IC50 [5]	IC50 [6, 10]	BAF3-FGFR1 (MIN IL3) pIC50 [7]	IC50 [8, 10]	BAF3-FGFR3 (MIN IL3) pIC50 [9]	IC50 [1]	IC50 [6]	IC50 [8]
COc1cc(OC)c(F)c(N(Cc2ncc[nH]2)c2ccc3ncc(-c4cnn(C)c4)nc3n2)c1 [Compound 23]	> 10000 nM	0.741 nM	6.74	1 nM	1.45 nM	> 10000 nM	8.85	> 10000 nM	~8.40	–	–	–
COc1cc(OC)cc(N(Cc2ncc[nH]2)c2ccc3ncc(-c4cnn(C)c4)nc3n2)c1 [Compound 24]	> 10000 nM	0.55 nM	6.22	0.741 nM	1.12 nM	> 10000 nM	8.46	> 10000 nM	8.20	–	–	–
COc1cc(OC)cc(N(CC#Cc2ncccc2OC)c2ccc3ncc(-c4cnn(C)c4)nc3n2)c1 [Compound 26]	> 10000 nM	50.1 nM	<5	63.1 nM	63.1 nM	> 10000 nM	6.8	> 10000 nM	~5.55	–	–	–
Cn1cc(-c2cnc3ccc(N(Cc4ncc[nH]4)c4cc(F)cc(F)c4)nc3n2)cn1 [Compound 27]	> 10000 nM	19.1 nM	<5	11.2 nM	6.61 nM	> 10000 nM	6.14	> 10000 nM	~6.54	–	–	–
COc1cc(OC)c(F)c(N(Cc2cn(S(=O)(=O)N(C)C)cn2)c2ccc3ncc(-c4cnn(C)c4)nc3n2)c1 [Compound 36]	> 10000 nM	1.55 nM	5.67	1.48 nM	3.98 nM	> 10000 nM	7.72	> 10000 nM	~7.57	–	–	–
COc1cc(/N=c2\ccc3ncc(-c4cnn(C)c4)nc3n2CCNC(C)C)c(F)c(OC)c1 [Compound 37]	> 10000 nM	1.62 nM	6.11	15.5 nM	4.47 nM	> 10000 nM	7.78	> 10000 nM	~7.65	–	–	–
CNCCn1/c(=N/c2cc(OC)cc(OC)c2F)ccc2ncc(-c3cnn(C)c3)nc21 [Compound 38]	> 10000 nM	2.45 nM	5.13	17.8 nM	4.57 nM	> 10000 nM	6.92	> 10000 nM	6.27	–	–	–
CNCCN(c1ccc2ncc(-c3cnn(C)c3)nc2n1)c1cc(OC)cc(OC)c1F [Compound 39]	–	2.19 nM	~6.19	11 nM	5.37 nM	–	7.97	–	~7.61	> 10000 nM	> 10000 nM	> 10000 nM
COc1cc(OC)c(F)c(N(CCO)c2ccc3ncc(-c4cnn(C)c4)nc3n2)c1 [Compound 40]	> 10000 nM	0.724 nM	6.00	1.82 nM	1.48 nM	> 10000 nM	7.80	> 10000 nM	7.84	–	–	–
COc1cc(OC)c(F)c(N(Cc2c[nH]cn2)c2ccc3ncc(-c4cnn(C)c4)nc3n2)c1 [Compound 41]	> 10000 nM	0.363 nM	6.70	0.759 nM	1.32 nM	> 10000 nM	7.99	> 10000 nM	8.08	–	–	–
COc1cc(OC)c(Cl)c(N(Cc2ncc[nH]2)c2ccc3ncc(-c4cnn(C)c4)nc3n2)c1 [Compound 42]	> 10000 nM	1.38 nM	6.89	3.02 nM	2.04 nM	> 10000 nM	8.57	> 10000 nM	~8.3	–	–	–
CNCCn1/c(=N/c2c(F)cccc2F)ccc2ncc(-c3cnn(C)c3)nc21 [Compound 44]	> 10000 nM	490 nM	<5	2820 nM	219 nM	> 10000 nM	5.12	> 10000 nM	<5	–	–	–
COc1cc(/N=c2\ccc3ncc(-c4cnn(C)c4)nc3n2CC2CCC(=O)N2)c(F)c(OC)c1 (stereo not drawn) [Compound 45]	> 10000 nM	1.48 nM	~5.96	3.98 nM	1.91 nM	> 10000 nM	7.14	> 10000 nM	7.07	–	–	–
COc1cc(OC)c(F)c(N(CC2CCC(=O)N2)c2ccc3ncc(-c4cnn(C)c4)nc3n2)c1 (stereo not drawn) [Compound 46]	> 10000 nM	1.82 nM	5.35	3.89 nM	2.45 nM	> 10000 nM	7.33	> 10000 nM	7.42	–	–	–
COc1cc(OC)cc(N(CC2CCC(=O)N2)c2ccc3ncc(-c4cnn(C)c4)nc3n2)c1 (stereo not drawn) [Compound 49]	> 10000 nM	3.24 nM	5.16	6.31 nM	1.95 nM	> 10000 nM	6.78	> 10000 nM	~6.85	–	–	–
COCC(O)CN(c1ccc2ncc(-c3cnn(C)c3)nc2n1)c1c(F)c(OC)cc(OC)c1F (stereo not drawn) [Compound 50]	> 10000 nM	1.74 nM	6.23	3.24 nM	3.89 nM	> 10000 nM	8.10	> 10000 nM	~8.11	–	–	–
COCC(O)Cn1c(=Nc2c(F)c(OC)cc(OC)c2F)ccc2ncc(-c3cnn(C)c3)nc21 (stereo not drawn) [Compound 51]	> 10000 nM	0.589 nM	5.93	0.525 nM	1.29 nM	> 10000 nM	8.48	> 10000 nM	~8.03	–	–	–
COc1cc(OC)c(F)c(/N=c2\ccc3ncc(-c4cnn(C)c4)nc3n2CCCN2CCCC2=O)c1F [Compound 55]	7760 nM	0.603 nM	7.13	0.447 nM	1.26 nM	> 10000 nM	8.12	> 10000 nM	8.19	–	–	–
COc1cc(OC)c(F)c(N(CCCN2CCCC2=O)c2ccc3ncc(-c4cnn(C)c4)nc3n2)c1F [Compound 56]	> 10000 nM	0.891 nM	6.60	2.29 nM	2.82 nM	> 10000 nM	7.53	> 10000 nM	7.87	–	–	–
COc1cc(OC)c(F)c(N(CC(O)COC(C)C)c2ccc3ncc(-c4cnn(C)c4)nc3n2)c1F (stereo not drawn) [Compound 63]	> 10000 nM	3.72 nM	6.58	6.03 nM	6.17 nM	> 10000 nM	7.90	> 10000 nM	7.97	–	–	–
COc1cc(OC)c(F)c(/N=c2\ccc3ncc(-c4cnn(C)c4)nc3n2CC(O)COC(C)C)c1F (stereo not drawn) [Compound 64]	> 10000 nM	0.776 nM	6.31	1 nM	1.62 nM	> 10000 nM	8.40	> 10000 nM	8.12	–	–	–
